This is an account of results in publication PMC4360375 (Journal of Medicinal Chemistry, 2015).

The target of series [1] is T1, rGAT1 (Rattus norvegicus, UniProt P23978).
T1 construct: Y prefix of 'YrGAT-1' (own knowledge: yellow fluorescent protein, YFP, fused to rGAT1 in this group's constructs); expressed in transfected cells; host or cells: HEK293
Nature of the series: [3H]-GABA uptake inhibition assay in HEK293 cells stably expressing rGAT1. Type of series: cell-based. The following applies: for effect on [3H]-GABA uptake, in words: 100 μM compound; for remaining activity at 100 µM: HEK293, 100 μM of the respective compound; for remaining activity at 100 µM / % uptake (remaining uptake of [3H]-GABA): n = 3, relative to saline; for % uptake (remaining uptake of [3H]-GABA): 100 μM of the respective compound.

Series [2] has as its system GABA uptake, rat synaptosome. The following applies: cited from earlier work; for pIC50: literature data set.
On the set-up of series [3]: method as in PMID 10903390. The conditions noted are these: cited from earlier work.
Where [4] appears, read: ref 10.1016/S0968-0896(01)00148-1.

Like-named read-outs stand apart in the source and are kept apart here.

A word on the remaining activity: it is the signal under treatment as a percentage of the control signal. Broadly, the pIC50 is the IC50 on a negative log10 scale, so that one unit is a factor of ten. For orientation: IC50 means the concentration that inhibits the measured activity by half.

In the case of `N[C@@H](Cc1cc(I)c(Oc2cc(I)c(O)c(I)c2)c(I)c1)C(=O)O` [27b, levothyroxine], in series [1], the “effect on [3H]-GABA uptake, in words” value is on record as “reduced uptake, albeit weaker than 27a” and the remaining activity at 100 µM turned out to be 54.2%.
In the case of `N[C@H](Cc1cc(I)c(Oc2cc(I)c(O)c(I)c2)c(I)c1)C(=O)O` [27c, dextrothyroxine], the remaining activity at 100 µM in series [1] stood at 127%.
On to `O=C(O)[C@@H]1CCCN(CCO/N=C(/Cc2ccccc2F)c2ccccc2F)C1` [An_2001/6_18, Fc1ccccc1C\C(=N\OCCN1C[C@@H](CCC1)C(O)=O)\c1ccccc1F], for which the pIC50 in series [2] (setting [4]) is 7.097.
For the molecule `O=C(O)[C@@H]1CCCN(CCON=C(Cc2ccccc2)Cc2ccccc2)C1` [An_2001/6_19, O(\N=C(\Cc1ccccc1)/Cc1ccccc1)CCN1C[C@@H](CCC1)C(O)=O], the pIC50 in series [2] (setting [4]) is listed as 5.987.
For the molecule `CC/C=C(/C=N/OCCN1CCC[C@@H](C(=O)O)C1)c1ccccc1` [An_2001/6_20, O(\N=C\C(=C\CC)\c1ccccc1)CCN1C[C@@H](CCC1)C(O)=O], in series [2] (setting [4]), the pIC50 is recorded as 6.125.
Take `CC(C)/C=C(/C=N/OCCN1CCC[C@@H](C(=O)O)C1)c1ccccc1` [An_2001/6_21, O(\N=C\C(=C\C(C)C)\c1ccccc1)CCN1C[C@@H](CCC1)C(O)=O]: the pIC50 in series [2] (setting [4]) is 6.569.
Regarding `CC(C)C/C=C(/C=N/OCCN1CCC[C@@H](C(=O)O)C1)c1ccccc1` [An_2001/6_22, O(\N=C\C(=C\CC(C)C)\c1ccccc1)CCN1C[C@@H](CCC1)C(O)=O], the pIC50 in series [2] (setting [4]) is recorded as 6.538.
Consider `O=C(O)[C@@H]1CCCN(CCO/N=C/C2(c3ccccc3)CCCC2)C1` [An_2001/6_23, O(\N=C\C1(CCCC1)c1ccccc1)CCN1C[C@@H](CCC1)C(O)=O], for which, in series [2] (setting [4]), the pIC50 was 6.337.
For the molecule `O=C(O)[C@@H]1CCCN(CCO/N=C2\CCCC[C@@H]2c2ccccc2)C1` [An_2001/6_24, O(\N=C\1/CCCC[C@@H]/1c1ccccc1)CCN1C[C@@H](CCC1)C(O)=O], the pIC50 in series [2] (setting [4]) was 6.489.
For the molecule `O=C(O)[C@@H]1CCCN(CCO/N=C2\CCCC=C2c2ccccc2)C1` [An_2001/6_25, O(\N=C\1/CCCC=C/1c1ccccc1)CCN1C[C@@H](CCC1)C(O)=O], the pIC50 in series [2] (setting [4]) was 6.456.
For `O=C(O)[C@@H]1CCCN(CCO/N=C2\CCCC\C2=C/c2ccccc2)C1` [An_2001/6_26, O(\N=C\1/CCCC/C/1=C\c1ccccc1)CCN1C[C@@H](CCC1)C(O)=O], in series [2] (setting [4]), the pIC50 is 5.013.
Turning to `O=C(O)[C@@H]1CCCN(CCO/N=C2\c3ccccc3CC[C@@H]2c2ccccc2)C1` [An_2001/6_27, O(\N=C\1/c2c(CC[C@@H]/1c1ccccc1)cccc2)CCN1C[C@@H](CCC1)C(O)=O], in series [2] (setting [4]), the pIC50 is listed as 6.058.
For `O=C(O)[C@@H]1CCCN(CCO/N=C2\C[C@H](c3ccccc3)c3ccccc32)C1` [An_2001/6_28, O(\N=C\1/C[C@@H](c2c/1cccc2)c1ccccc1)CCN1C[C@@H](CCC1)C(O)=O], the pIC50 in series [2] (setting [4]) is reported as 5.852.
Regarding `O=C(O)[C@@H]1CCCN(CCOc2ccccc2)C1` [An_2001/6_32, O(CCN1C[C@@H](CCC1)C(O)=O)c1ccccc1], in series [2] (setting [4]), the pIC50 is listed as 5.046.
With `O=C(O)[C@@H]1CCCN(CCOc2ccccc2-c2ccccc2)C1` [An_2001/6_33, O(CCN1C[C@@H](CCC1)C(O)=O)c1ccccc1-c1ccccc1], the pIC50 in series [2] (setting [4]) is given as 5.235.
As to `O=C(O)[C@@H]1CCCN(CCOc2ccccc2Cc2ccccc2)C1` [An_2001/6_34, O(CCN1C[C@@H](CCC1)C(O)=O)c1ccccc1Cc1ccccc1], the pIC50 in series [2] (setting [4]) is recorded as 5.158.
Turning to `O=C(O)[C@@H]1CCCN(CCOCc2ccccc2-c2ccccc2)C1` [An_2001/6_35, O(Cc1ccccc1-c1ccccc1)CCN1C[C@@H](CCC1)C(O)=O], in series [2] (setting [4]), the pIC50 is listed as 6.476.
As to `O=C(O)[C@@H]1CCCN(CCOCc2ccc3ccccc3c2-c2ccccc2)C1` [An_2001/6_36, O(Cc1ccc2c(cccc2)c1-c1ccccc1)CCN1C[C@@H](CCC1)C(O)=O], the negative logarithm of the IC50 (pIC50) in series [2] (setting [4]) is 5.098.
Consider `O=C(O)[C@@H]1CCCN(CCOCc2ccccc2Cc2ccccc2)C1` [An_2001/6_37, O(Cc1ccccc1Cc1ccccc1)CCN1C[C@@H](CCC1)C(O)=O], for which, in series [2] (setting [4]), the pIC50 is 6.495.
In the case of `O=C(O)[C@@H]1CCCN(CCOCc2cccc(Cc3ccccc3)c2)C1` [An_2001/6_38, O(Cc1cc(ccc1)Cc1ccccc1)CCN1C[C@@H](CCC1)C(O)=O], the pIC50 in series [2] (setting [4]) is 5.523.
Take `O=C(O)[C@@H]1CCCN(CCOCCc2ccccc2-c2ccccc2)C1` [An_2001/6_39, O(CCc1ccccc1-c1ccccc1)CCN1C[C@@H](CCC1)C(O)=O]: the pIC50 in series [2] (setting [4]) was 6.959.
Regarding `O=C(O)[C@@H]1CCCN(CCOCCc2ccccc2Cc2ccccc2)C1` [An_2001/6_40, O(CCc1ccccc1Cc1ccccc1)CCN1C[C@@H](CCC1)C(O)=O], the pIC50 in series [2] (setting [4]) is reported as 7.
In the case of `O=C(O)[C@@H]1CCCN(CCOC/C(=C/c2ccccc2)c2ccccc2)C1` [An_2001/6_41, O(CCN1C[C@@H](CCC1)C(O)=O)C\C(=C\c1ccccc1)\c1ccccc1], the pIC50 in series [2] (setting [4]) was 6.297.
Turning to `O=C(O)[C@@H]1CCCN(CCOC/C(=C\c2ccccc2)c2ccccc2)C1` [An_2001/6_42, O(CCN1C[C@@H](CCC1)C(O)=O)C\C(=C/c1ccccc1)\c1ccccc1], in series [2] (setting [4]), the pIC50 is reported as 5.523.
On to `O=C(O)[C@@H]1CCCN(CCOCCc2ccccc2)C1` [An_2001/6_43, O(CCc1ccccc1)CCN1C[C@@H](CCC1)C(O)=O], for which the pIC50 in series [2] (setting [4]) is recorded as 5.347.
Consider `CC(C)CN(CCOCCN1CCC[C@@H](C(=O)O)C1)c1ccccc1` [An_2001/6_44, O(CCN1C[C@@H](CCC1)C(O)=O)CCN(CC(C)C)c1ccccc1], for which the pIC50 in series [2] (setting [4]) is on record as 6.553.
In the case of `CC(C)CN(CCOCCN1CCC[C@@H](C(=O)O)C1)c1ccc(F)cc1Cl` [An_2001/6_45, Clc1cc(F)ccc1N(CC(C)C)CCOCCN1C[C@@H](CCC1)C(O)=O], the pIC50 in series [2] (setting [4]) is 6.827.
With `O=C(O)C1=CCCN(CCOC(c2ccc(C(F)(F)F)cc2)c2ccc(C(F)(F)F)cc2)C1` [Cl-966, FC(F)(F)c1ccc(cc1)C(OCCN1CC(=CCC1)C(O)=O)c1ccc(cc1)C(F)(F)F], in series [2] (ref 10.1021/jm00064a005), the pIC50 is reported as 6.357.
In the case of `O=C(O)C1=CCCN(CCON=C(c2ccccc2)c2ccccc2)C1` [NO-711, O(\N=C(\c1ccccc1)/c1ccccc1)CCN1CC(=CCC1)C(O)=O], the pIC50 in series [2] (ref 10.1021/jm981027k) was 7.328.
Regarding `O=C(O)C1=CCCN(CCC=C(c2ccccc2)c2ccccc2)C1` [SK&F-100330-A, OC(=O)C=1CN(CCC=1)CC\C=C(\c1ccccc1)/c1ccccc1], in series [2] (ref 10.1021/jm00064a005), the pIC50 is given as 6.699.
Regarding `O=C(O)C1CCCNC1` (stereo not drawn) [compound 2, nipecotic acid], the blood-brain barrier penetration result in series [3] is “unable to penetrate the blood–brain barrier”.
With `Cc1ccsc1C(=CCCN1CCC[C@@H](C(=O)O)C1)c1sccc1C` [compound 5, tiagabine], the pIC50 in series [2] (ref 10.1021/jm00064a005) is 7.174.
With `Cc1ccsc1C(=COCCN1CCC[C@@H](C(=O)O)C1)c1sccc1C` [compound 6, s1ccc(C)c1\C(=C\OCCN1C[C@@H](CCC1)C(O)=O)\c1sccc1C], the pIC50 in series [2] (ref 10.1021/jm981027k) is 7.854.
As for `O=C(O)[C@@H]1CCCN(CCC=C2c3ccccc3-c3ccccc32)C1` [compound 7, OC(=O)[C@@H]1CCCN(C1)CC\C=C/1\c2c(-c3c\1cccc3)cccc2], the pIC50 in series [2] (ref 10.1021/jm00064a005) is 5.717.
With `O=C(O)[C@@H]1CCCN(CCOCCC(c2ccccc2)c2ccccc2)C1` [compound 8, O(CCC(c1ccccc1)c1ccccc1)CCN1C[C@@H](CCC1)C(O)=O], the pIC50 in series [2] (ref 10.1021/jm980492e) was 7.26.
In the case of `O=C(O)[C@@H]1CCCN(CCCCCC(c2ccccc2)c2ccccc2)C1` [compound 9, OC(=O)[C@@H]1CCCN(C1)CCCCCC(c1ccccc1)c1ccccc1], in series [2] (Figure 2, rat synaptosome GABA uptake, read-out: literature IC50), the IC50 is 1590 nM. Besides, in series [2] (ref 10.1021/jm980492e), the pIC50 is 5.799.
For the molecule `O=C(O)[C@@H]1CCCN(CCO/N=C(/c2ccccc2)c2ccccn2)C1` [compound 11, O(\N=C(\c1ccccc1)/c1ncccc1)CCN1C[C@@H](CCC1)C(O)=O], the pIC50 in series [2] (ref 10.1021/jm981027k) is 5.684.
Consider `CCN(CCC(=O)O)Cc1nc2c(C)cccc2c(=O)[nH]1` [compound 12], for which, in series [1], the remaining activity at 100 µM came out at 105%.
On the same count and under the same terms, with `CC(C(=O)Nc1ccc(Br)cc1Br)N1CCCC(CC(=O)O)C1` (stereo not drawn) [compound 13] the figure was 93.2%; with `O=C(O)CN1CCC(CCc2ccccc2C(F)(F)F)CC1` [compound 14], 99%.
For `CC(C(=O)O)N1CCCN(C(=O)c2ccccc2C(F)(F)F)CC1` (stereo not drawn) [compound 15], the remaining activity at 100 µM in series [1] came to 104%.
With `O=C(O)CN1CCCC1Cc1ccccc1Cl` (stereo not drawn) [compound 16], the remaining activity at 100 µM in series [1] turned out to be 95.1%.
In the case of `O=C(CCN1CCCC1C(=O)O)Nc1ccccc1Oc1ccccc1` (stereo not drawn) [compound 18], in series [1], the “effect on [3H]-GABA uptake, in words” value was “some weak activity” and the remaining activity at 100 µM turned out to be 79.3%.
With `Fc1cc(Br)cc(CN2CCCC(c3nnn[nH]3)C2)c1` (stereo not drawn) [compound 19], in series [1], the remaining activity at 100 µM was 91%.
The same measure, in the same setting: with `Cc1nn(Cc2ccccc2Cl)c(C)c1CN(C)C(C)C(=O)O` (stereo not drawn) [compound 20] the figure was 93.9%; with `O=C(CN1CCC[C@H]1C(=O)O)NC(c1ccc(F)cc1)c1cccs1` (stereo partly drawn) [compound 21], 94.7%; with `Cc1cc(S(=O)(=O)N2CCN(CCC(=O)O)CC2)ccc1Br` [compound 22], 104%.
Consider `NC(CSCc1cccc2ccccc12)C(=O)O` (stereo not drawn) [compound 23], for which the remaining activity at 100 µM in series [1] was 108%.
For the molecule `CCC(CC)OC1C=C(C(=O)O)CC(N)C1NC(C)=O` (stereo not drawn) [compound 24], in series [1], the remaining activity at 100 µM worked out at 105%.
As to bepotastine [compound 25], in series [1], the “effect on [3H]-GABA uptake, in words” value was “inactive” and the “% uptake (remaining uptake of [3H]-GABA)” value was 103.8%. The “effect on [3H]-GABA uptake, in words” value in series [1] (listed as bepotastine) was “essentially inactive”.
On to ramipril [compound 26], for which, in series [1], the “effect on [3H]-GABA uptake, in words” value was “inactive” and the “% uptake (remaining uptake of [3H]-GABA)” value turned out to be 107.7%.
